Experimental data published in publication PMC6768063 (Journal of computer-aided molecular design, 2019).

What was measured:
D2 receptor [1] = target: T1, D2 receptor (Homo sapiens, UniProt P14416); assay: calcium flux assay; format: cell-based; conditions: for EC50: read-out: EC50, agonist effect (calcium flux), D2/CHO-K1 cells, agonist mode
D2 receptor [2] = target: T1, D2 receptor; conditions: cited from earlier work
D1 receptor [3] = target: T2, D1 receptor (Homo sapiens, UniProt P21728); assay: cAMP assay; format: cell-based; conditions: for EC50: read-out: EC50, agonist effect (cAMP production), CHO-K1/D1 cells, agonist mode
5-HT1A receptor = conditions: cited from earlier work
D3 receptor = conditions: cited from earlier work
D2 receptor [4] = target: T1, D2 receptor; conditions: cited from earlier work; remark: listed apart in the source
D1 receptor [5] = target: T2, D1 receptor; conditions: cited from earlier work

T1 sequence (P14416 whole entry): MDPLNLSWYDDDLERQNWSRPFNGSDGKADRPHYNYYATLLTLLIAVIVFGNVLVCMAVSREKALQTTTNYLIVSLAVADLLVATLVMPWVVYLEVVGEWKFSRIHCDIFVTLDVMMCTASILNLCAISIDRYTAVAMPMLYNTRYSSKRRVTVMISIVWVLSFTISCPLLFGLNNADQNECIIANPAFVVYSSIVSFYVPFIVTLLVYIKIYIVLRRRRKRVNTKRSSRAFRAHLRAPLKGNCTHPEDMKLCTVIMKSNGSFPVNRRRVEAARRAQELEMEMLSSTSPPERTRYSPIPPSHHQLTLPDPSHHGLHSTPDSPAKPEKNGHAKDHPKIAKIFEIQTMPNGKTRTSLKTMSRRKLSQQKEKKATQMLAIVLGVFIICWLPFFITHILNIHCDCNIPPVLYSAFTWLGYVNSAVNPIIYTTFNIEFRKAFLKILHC
T2 sequence (P21728 whole entry): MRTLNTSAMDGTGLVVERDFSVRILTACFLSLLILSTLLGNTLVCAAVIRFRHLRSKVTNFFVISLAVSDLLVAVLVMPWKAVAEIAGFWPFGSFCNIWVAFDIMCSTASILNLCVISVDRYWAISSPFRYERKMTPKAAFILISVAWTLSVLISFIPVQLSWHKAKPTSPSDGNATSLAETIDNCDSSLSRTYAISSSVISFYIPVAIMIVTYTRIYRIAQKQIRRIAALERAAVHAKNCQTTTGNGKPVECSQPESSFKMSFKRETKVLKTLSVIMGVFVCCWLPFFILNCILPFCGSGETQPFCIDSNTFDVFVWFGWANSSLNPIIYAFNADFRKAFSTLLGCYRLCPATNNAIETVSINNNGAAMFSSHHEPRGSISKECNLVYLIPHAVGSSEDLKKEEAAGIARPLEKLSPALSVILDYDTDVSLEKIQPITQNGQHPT

## CN1CCc2cc(Cl)c(O)cc2[C@@H](c2ccccc2)C1 [SCH23390, reference compound]
D2 receptor [1]
  IC50: 4.06 µM

## COc1cc2c(cc1OC)[C@H]1Cc3ccc(OC)c(OC)c3CN1CC2 [d-THP]
D2 receptor [2]
  binding affinity for the D2 receptor (in words): low or absent affinity

## COc1ccc2c(c1O)CN1CCc3cc4c(cc3C1C2)OCO4 (stereo not drawn) [d-TU, Tetrahydroberberrubine]
D1 receptor [3]; based on the cAMP assay
  affinity against D1 receptor (in words): no affinity
D1 receptor [3]
  EC50: > 10 µM
D2 receptor [1]; based on the calcium flux assay
  affinity against D2 receptor (in words): no affinity
D2 receptor [1]
  EC50: > 10 µM

## COc1cc2c(cc1OC)[C@@H]1Cc3ccc(OC)c(OC)c3CN1CC2 [l-THP, l-tetrahydropalmatine]
D2 receptor [2]
  binding affinity for the D2 receptor (in words): high binding affinity

## COc1ccc2c(c1O)CN1CCc3cc4c(cc3C1C2)OCO4 (stereo not drawn) [l-TU, Tetrahydroberberrubine]
D1 receptor [3]
  EC50: > 10 µM
D2 receptor [1]
  EC50: > 10 µM
5-HT1A receptor
  binding affinity for 5-HT1A receptor (in words): high binding affinities
D3 receptor
  binding affinity for D3 receptor (in words): high binding affinities
D2 receptor [4]
  binding affinity for D2 receptor (in words): high binding affinities
D1 receptor [5]
  binding affinity for D1 receptor (in words): high binding affinities
